# Test results: patent publication US12473250B2, “Molecular design of new antibiotics and antibiotic adjuvants against MCR strains” (priority 2019, dated 2025)
# What was measured:
# [1] = system: colistin resistant MCR (−) E. Cloacae strain 7023456439; assay: MIC, broth microdilution, compound alone; format: cell-based; settings: strain 7023456439 E. Cloacae
# Summary of the method: (§1)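 Wells held ~5×10^5 CFU/mL of bacteria prepared to 0.5 McFarland from overnight TSA colonies and exposed to serially diluted agents, following modified CLSI microdilution. After 24 h at 35 °C, growth judged by turbidity (OD600 possible); 99% inhibition sets the MIC.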
# [2] = system: colistin resistant MCR (−) E. Coli strains; assay: MIC, broth microdilution, compound alone; format: cell-based
# Summary of the method: as §1
# [3] = system: KLPN multi-drug resistant strains; assay: MIC against multi-drug resistant strains (Table 5); format: cell-based, Klebsiella pneumonia; settings: alone
# Experimental: (§2) MIC experiments of the antimicrobial agents were determined by a modified broth microdilution method in accordance with the Clinical and Laboratory Standards Institute (CLSI) guidelines using 96 well culture plates. In brief, serial dilutions of all plates were prepared at different concentrations (μg). The inoculum suspension was prepared by adding isolated colonies from a 18-20 hours on TSA plate into phosphate buffer (0.31 mM, pH 7.2) or in water for injection (BBraun) and adjusting the suspension to a turbidity equivalent to 0.5 McFarland Standard. Each well contained a final bacterial concentration of approximately 5×10^5 colony forming units (CFU)/mL. The plate was covered and incubated at 35° C. for 24 hours. […] For the microdilution plates, turbidity in wells can be measured at OD600 using TECAN infinite M200Pro. MIC was determined as […] concentration that gives a 99 percent inhibition.
# [4] = system: ENT CLOACAE multi-drug resistant strains; assay: MIC against multi-drug resistant strains (Table 5); format: cell-based, E. cloacae; settings: alone
# Experimental: as §2
# various pathogens = assay: organism not typed; format: cell-based
# Experimental: The MICs of the individual drugs and LC compound in combinations were determined using the broth microdilution technique as recommended by the CLSI whereby the two anti-microbial agents were added in an equal amount. (e.g.: 50 μL of Colistin: 50 μL of LC compounds). Diluted media containing compounds and antibiotics will be serially diluted 2-fold, and LC compounds and antibiotics alone or in combination will be assayed at fixed synergy concentration. In all cases, the lowest concentration at which no visible growth occurred was be recorded to be the MIC value of individual and combined antibacterial agents. The results were obtained after 24 hours of incubation.
# Using the combination of LC100 and colistin, the activity of a broad range of strains was further tested (Table 7).
# [5] = 6093560257 [MCR 1+, E. Coli, NDM-1]
# [6] = 7103531927 [MCR 1+, E. Coli, KPC+]
# [7] = 7113636863 [MCR 1+, E. Coli, NDM-1]
substance,measurement,setting,value
Colistin,MIC,[1],100 µg/mL
same,MIC,"[2]; strain 6083672926, MCR (−)",12.5 µg/mL
same,MIC,"[2]; strain 7023446108, MCR (−)",6.25 µg/mL
same,MIC,"[2]; strain 7033607097, MCR (−)",6.25 µg/mL
same,MIC,[3]; strain KLPN 8852,>50 µg/mL
same,MIC,[3]; strain KLPN 15588,1.56 µg/mL
same,MIC,[3]; strain KLPN 24076,1.56 µg/mL
same,MIC,[3]; strain KLPN 27025,1.56 µg/mL
same,MIC,[4]; strain ENT CLOACAE 6780,1.56 µg/mL
same,MIC,[4]; strain ENT CLOACAE 21489,0.78 µg/mL
same,MIC,[4]; strain ENT CLOACAE 30063,>50 µg/mL
same,MIC,[4]; strain ENT CLOACAE 44095,>50 µg/mL
same,FOLD CHANGES [Absorbance (abs; OD 600 nm)] No Treatment [Bacteria alone]: Colistin 0.5 μg,"various pathogens; 6083655967 [MCR 1+, E. Coli]",1.10
same,FOLD CHANGES [Absorbance (abs; OD 600 nm)] No Treatment [Bacteria alone]: MIC Colistin,"various pathogens; 6083655967 [MCR 1+, E. Coli]",19.59
same,MIC,"various pathogens; 6083655967 [MCR 1+, E. Coli]",6.25 µg/mL
same,FOLD CHANGES [Absorbance (abs; OD 600 nm)] No Treatment [Bacteria alone]: Colistin 0.5 μg,various pathogens; [5],1.14
same,FOLD CHANGES [Absorbance (abs; OD 600 nm)] No Treatment [Bacteria alone]: MIC Colistin,various pathogens; [5],21.59
same,MIC,various pathogens; [5],6.25 µg/mL
same,FOLD CHANGES [Absorbance (abs; OD 600 nm)] No Treatment [Bacteria alone]: Colistin 0.5 μg,"various pathogens; 6123520276 [MCR 1+, E. Coli]",1.04
same,FOLD CHANGES [Absorbance (abs; OD 600 nm)] No Treatment [Bacteria alone]: MIC Colistin,"various pathogens; 6123520276 [MCR 1+, E. Coli]",20.10
same,MIC,"various pathogens; 6123520276 [MCR 1+, E. Coli]",6.25 µg/mL
same,FOLD CHANGES [Absorbance (abs; OD 600 nm)] No Treatment [Bacteria alone]: Colistin 0.5 μg,"various pathogens; 7023436560 [MCR 1+, E. Coli]",1.14
same,FOLD CHANGES [Absorbance (abs; OD 600 nm)] No Treatment [Bacteria alone]: MIC Colistin,"various pathogens; 7023436560 [MCR 1+, E. Coli]",18.70
same,MIC,"various pathogens; 7023436560 [MCR 1+, E. Coli]",6.25 µg/mL
same,FOLD CHANGES [Absorbance (abs; OD 600 nm)] No Treatment [Bacteria alone]: Colistin 0.5 μg,"various pathogens; 7023444207 [MCR 1+, E. Coli]",1.10
same,FOLD CHANGES [Absorbance (abs; OD 600 nm)] No Treatment [Bacteria alone]: MIC Colistin,"various pathogens; 7023444207 [MCR 1+, E. Coli]",17.44
same,MIC,"various pathogens; 7023444207 [MCR 1+, E. Coli]",6.25 µg/mL
same,FOLD CHANGES [Absorbance (abs; OD 600 nm)] No Treatment [Bacteria alone]: Colistin 0.5 μg,"various pathogens; 7023446108 [MCR 1−, E. Coli]",1.15
same,FOLD CHANGES [Absorbance (abs; OD 600 nm)] No Treatment [Bacteria alone]: MIC Colistin,"various pathogens; 7023446108 [MCR 1−, E. Coli]",18.04
same,MIC,"various pathogens; 7023446108 [MCR 1−, E. Coli]",6.25 µg/mL
same,FOLD CHANGES [Absorbance (abs; OD 600 nm)] No Treatment [Bacteria alone]: Colistin 0.5 μg,"various pathogens; 7033607097 [MCR 1−, E. Coli]",1.35
same,FOLD CHANGES [Absorbance (abs; OD 600 nm)] No Treatment [Bacteria alone]: MIC Colistin,"various pathogens; 7033607097 [MCR 1−, E. Coli]",15.21
same,MIC,"various pathogens; 7033607097 [MCR 1−, E. Coli]",6.25 µg/mL
same,FOLD CHANGES [Absorbance (abs; OD 600 nm)] No Treatment [Bacteria alone]: Colistin 0.5 μg,various pathogens; [6],1.06
same,FOLD CHANGES [Absorbance (abs; OD 600 nm)] No Treatment [Bacteria alone]: MIC Colistin,various pathogens; [6],17.67
same,MIC,various pathogens; [6],6.25 µg/mL
same,FOLD CHANGES [Absorbance (abs; OD 600 nm)] No Treatment [Bacteria alone]: Colistin 0.5 μg,various pathogens; [7],1.06
same,FOLD CHANGES [Absorbance (abs; OD 600 nm)] No Treatment [Bacteria alone]: MIC Colistin,various pathogens; [7],16.97
same,MIC,various pathogens; [7],6.25 µg/mL
same,FOLD CHANGES [Absorbance (abs; OD 600 nm)] No Treatment [Bacteria alone]: Colistin 0.5 μg,various pathogens; ACBA 1003 (CI),1.26
same,FOLD CHANGES [Absorbance (abs; OD 600 nm)] No Treatment [Bacteria alone]: MIC Colistin,various pathogens; ACBA 1003 (CI),12.60
same,MIC,various pathogens; ACBA 1003 (CI),1.56 µg/mL
same,FOLD CHANGES [Absorbance (abs; OD 600 nm)] No Treatment [Bacteria alone]: Colistin 0.5 μg,various pathogens; ACBA 1004 (CI),1.09
same,FOLD CHANGES [Absorbance (abs; OD 600 nm)] No Treatment [Bacteria alone]: MIC Colistin,various pathogens; ACBA 1004 (CI),23.71
same,MIC,various pathogens; ACBA 1004 (CI),1.56 µg/mL
same,FOLD CHANGES [Absorbance (abs; OD 600 nm)] No Treatment [Bacteria alone]: Colistin 0.5 μg,various pathogens; ACBA 1005 (CI),1.02
same,FOLD CHANGES [Absorbance (abs; OD 600 nm)] No Treatment [Bacteria alone]: MIC Colistin,various pathogens; ACBA 1005 (CI),22.34
same,MIC,various pathogens; ACBA 1005 (CI),1.56 µg/mL
same,FOLD CHANGES [Absorbance (abs; OD 600 nm)] No Treatment [Bacteria alone]: Colistin 0.5 μg,various pathogens; ACBA 1006 (CI),1.12
same,FOLD CHANGES [Absorbance (abs; OD 600 nm)] No Treatment [Bacteria alone]: MIC Colistin,various pathogens; ACBA 1006 (CI),23.81
same,MIC,various pathogens; ACBA 1006 (CI),1.56 µg/mL
same,FOLD CHANGES [Absorbance (abs; OD 600 nm)] No Treatment [Bacteria alone]: Colistin 0.5 μg,various pathogens; ACBA 1010 (CI),1.13
same,FOLD CHANGES [Absorbance (abs; OD 600 nm)] No Treatment [Bacteria alone]: MIC Colistin,various pathogens; ACBA 1010 (CI),21.43
same,MIC,various pathogens; ACBA 1010 (CI),0.39 µg/mL
same,FOLD CHANGES [Absorbance (abs; OD 600 nm)] No Treatment [Bacteria alone]: Colistin 0.5 μg,various pathogens; ACBA ATCC 19606,2.04
same,FOLD CHANGES [Absorbance (abs; OD 600 nm)] No Treatment [Bacteria alone]: MIC Colistin,various pathogens; ACBA ATCC 19606,16.14
same,MIC,various pathogens; ACBA ATCC 19606,0.78 µg/mL
same,FOLD CHANGES [Absorbance (abs; OD 600 nm)] No Treatment [Bacteria alone]: Colistin 0.5 μg,various pathogens; ACBA DR 43357,1.06
same,FOLD CHANGES [Absorbance (abs; OD 600 nm)] No Treatment [Bacteria alone]: MIC Colistin,various pathogens; ACBA DR 43357,25.47
same,MIC,various pathogens; ACBA DR 43357,1.56 µg/mL
same,FOLD CHANGES [Absorbance (abs; OD 600 nm)] No Treatment [Bacteria alone]: Colistin 0.5 μg,various pathogens; E. Coli ATCC 8739,1.85
same,FOLD CHANGES [Absorbance (abs; OD 600 nm)] No Treatment [Bacteria alone]: MIC Colistin,various pathogens; E. Coli ATCC 8739,20.68
same,MIC,various pathogens; E. Coli ATCC 8739,0.78 µg/mL
same,FOLD CHANGES [Absorbance (abs; OD 600 nm)] No Treatment [Bacteria alone]: Colistin 0.5 μg,various pathogens; E. Coli ATCC 10536,1.11
same,FOLD CHANGES [Absorbance (abs; OD 600 nm)] No Treatment [Bacteria alone]: MIC Colistin,various pathogens; E. Coli ATCC 10536,18.42
same,MIC,various pathogens; E. Coli ATCC 10536,0.78 µg/mL
same,FOLD CHANGES [Absorbance (abs; OD 600 nm)] No Treatment [Bacteria alone]: Colistin 0.5 μg,various pathogens; E. Coli ATCC 25922,1.23
same,FOLD CHANGES [Absorbance (abs; OD 600 nm)] No Treatment [Bacteria alone]: MIC Colistin,various pathogens; E. Coli ATCC 25922,18.24
same,MIC,various pathogens; E. Coli ATCC 25922,0.78 µg/mL
same,FOLD CHANGES [Absorbance (abs; OD 600 nm)] No Treatment [Bacteria alone]: Colistin 0.5 μg,various pathogens; E. Coli ATCC 35218,1.31
same,FOLD CHANGES [Absorbance (abs; OD 600 nm)] No Treatment [Bacteria alone]: MIC Colistin,various pathogens; E. Coli ATCC 35218,24.46
same,MIC,various pathogens; E. Coli ATCC 35218,0.78 µg/mL
same,FOLD CHANGES [Absorbance (abs; OD 600 nm)] No Treatment [Bacteria alone]: Colistin 0.5 μg,various pathogens; E. Coli CRE 11804,1.19
same,FOLD CHANGES [Absorbance (abs; OD 600 nm)] No Treatment [Bacteria alone]: MIC Colistin,various pathogens; E. Coli CRE 11804,17.29
same,MIC,various pathogens; E. Coli CRE 11804,0.78 µg/mL
same,FOLD CHANGES [Absorbance (abs; OD 600 nm)] No Treatment [Bacteria alone]: Colistin 0.5 μg,various pathogens; E. Coli CRE 17232,1.31
same,FOLD CHANGES [Absorbance (abs; OD 600 nm)] No Treatment [Bacteria alone]: MIC Colistin,various pathogens; E. Coli CRE 17232,16.09
